Reference: paper PMC10070186, “Unusual peptide-binding proteins guide pyrroloindoline alkaloid formation in crocagin biosynthesis” (Nature Chemistry, 2023)
pKd: −log10 of the molar value. Entries after “also recorded” stand apart in the source; their conditions may differ. Blank lines part the entries; values can stand above or below the compound they belong to.

What was measured:
[1] = system: CsrA; conditions: in vitro; cited from earlier work
Description: Their biosynthesis begins with the ribosomal expression of a short gene to yield a precursor peptide that usually consists of an N-terminal ‘leader’ and a C-terminal ‘core’ peptide. While the leader peptide is important for substrate recognition by the enzyme(s) installing class-defining modifications, the core peptide is ultimately converted into the final product and can be extensively modified[17]–[19]. Fe ...

[2] = system: CgnB, CgnC and CgnE; experiment: In vitro processing of CgnA and variants by CgnB, CgnC and CgnE (LC-MS); format: biochemical, Chondromyces crocatus CM c5
Method: All biochemical reactions were performed in 150 mM NaCl, 10 mM HEPES, 0.5 mM TCEP, pH 7.4. For CgnA–CgnB–CgnC reactions, a mixture of 50 µM CgnA, 10 µM CgnB, 5 µM CgnC, 4 mM ascorbic acid, 2.5 mM FeCl2 and 1 mM 2-oxoglutaric acid was incubated at 37 °C for 2 h. For CgnA–CgnB–CgnC–CgnE reactions, a mixture of 50 µM CgnA, 10 µM CgnB, 5 µM CgnC, 5 µM CgnE, 4 mM ascorbic acid, 2.5 mM FeCl2 and 1 mM 2-oxoglutaric acid was incubated at 37 °C for 2 h. The standard reaction volume was 50 µl. Proteins were precipitated by adding 50% acetonitrile and freezing the mixture at −80 °C for 2 h prior to liquid chromatography and mass spectrometry (LC-MS) analysis.

[3] = biological target: CgnE; experiment: MST binding of CgnA (or leader peptide) to CgnE; design: species or system Chondromyces crocatus CM c5
Method: (§1) Supplementary Figure 13: Analysis of protein complexes using SEC and MST. a MST measurements to determine KDs of the protein pairs given. X/Y – Affinity of fluorescently labeled X to Y (titrated). + Z: Z was supplied at a constant, high concentration. […]
(§2) Both samples were incubated at room temperature for 10 min prior to LC-MS analysis.
(§3) Microscale Thermophoresis
(§4) MST binding affinity measurements were performed using a Monolith NT 115 system (Nanotemper Technologies) with MO.Control v1.6 software. Labeling of different proteins was performed using the Monolith Labeling Kit RED-NHS 2nd generation according to the manufacturer’s instructions. For this, a 10 µM dilution of the desired protein was prepared in the supplied labeling buffer NHS (130 mM NaHCO3, 50 mM NaCl, pH 8.2). To yield a 600 μM dye solution, 25 μL DMSO was added to dry powder. For the labeling procedure, 7 μL of the freshly prepared dye solution was mixed with 7 μL of […]
Target sequence in this assay (as listed by the source): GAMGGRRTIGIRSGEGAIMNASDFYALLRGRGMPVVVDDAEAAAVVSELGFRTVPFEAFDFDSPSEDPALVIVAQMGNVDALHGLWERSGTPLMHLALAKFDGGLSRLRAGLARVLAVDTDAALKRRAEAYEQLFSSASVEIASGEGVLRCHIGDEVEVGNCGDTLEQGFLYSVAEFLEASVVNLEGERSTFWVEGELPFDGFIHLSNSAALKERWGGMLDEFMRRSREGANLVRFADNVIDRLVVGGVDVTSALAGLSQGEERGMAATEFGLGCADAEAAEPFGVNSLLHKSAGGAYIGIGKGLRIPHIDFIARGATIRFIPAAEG

[4] = biological target: CgnD; experiment: MST binding to CgnD; design: species or system Chondromyces crocatus CM c5; conditions: microscale thermophoresis
Target sequence in this assay (as listed by the source): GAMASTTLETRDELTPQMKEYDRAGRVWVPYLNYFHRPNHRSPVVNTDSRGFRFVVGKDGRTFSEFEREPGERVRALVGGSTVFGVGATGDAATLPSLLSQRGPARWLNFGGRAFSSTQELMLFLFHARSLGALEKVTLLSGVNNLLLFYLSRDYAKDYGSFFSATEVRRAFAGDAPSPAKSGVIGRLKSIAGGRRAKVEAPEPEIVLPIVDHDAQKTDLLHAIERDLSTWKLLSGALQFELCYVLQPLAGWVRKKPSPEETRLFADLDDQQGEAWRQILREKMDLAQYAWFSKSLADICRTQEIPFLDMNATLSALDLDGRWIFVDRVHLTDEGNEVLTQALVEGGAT

[5] = biological target: CgnC; experiment: MST binding of CgnA to CgnC; design: species or system Chondromyces crocatus CM c5; conditions: CgnC titrated
Method: as §1, §2, §3, §4

[6] = system: CgnB; experiment: MST binding of CgnA (or leader peptide) to CgnB; design: species or system Chondromyces crocatus CM c5
Method: as §1, §2, §3, §4

[7] = system: CgnE; experiment: ICP-MS iron binding to CgnE; design: species or system Chondromyces crocatus CM c5; conditions: 5 mM fresh FeCl2, 30 min, PD10 desalting
Method: Inductively Couple Plasma-Mass Spectrometry
Experimental solutions were analysed using an Agilent 7500ce fitted with a self-aspire nebuliser tuned for a flow of 0.1 mL min-1 at the Scottish Universities Environmental Research Centre (SUERC).
Samples were initially diluted to a protein concentration of 2 µM in 0.8 M HNO3. CgnB was dialyzed 4 x for 1 h at a dilution of 1 : 5000 in buffer containing 100 mM EDTA prior to analysis. CgnE was incubated with freshly prepared FeCl2 for 30 min (5 mM final FeCl2 concentration) and then subjected to a PD10 desalting column in CgnE buffer before the protein was diluted in HNO3 for analysis. For Fe2+ analysis, flow in the collision cell was set to 2 mL min -1 of H. The metal concentration was calculated by reference to a three -standard calibration line. Each sample value was corrected for procedural blank containing ultrapure water and 0.8 M HNO 3.
CgnB and CgnE sequences were compared with TBLA STN[22] to whole-genome shotgun contigs of taxa listed in (Supplementary table 4). We have retrieved the corresponding genome segments and identified tandem appearances of homologous genes, as well as searched for candidate peptides in their genomic neigh borhood with custom Python and Perl scripts. Phylogenetic trees were constructed with RAxML[23] using the PROTGAMMAJTT model. Bootstrap values were computed using 100 bootstrap […]

[8] = system: CgnD; experiment: Labeling of CgnD with PMSF (LC-MS); format: biochemical, Chondromyces crocatus CM c5; conditions: 10 µM CgnD, 10-fold excess PMSF, room temperature, 10 min
Method: All structural images portrayed were rendered in PyMOL (The PyMOL Molecular Graphics System Version 1.8.6.0, Schrödinger, LLC).
Purified, lyophilized 3a/b (see above) was dissolved in 20 mM sodium phosphate pH 7.2 containing 5%
D2O. A similar sample of unmodified CgnA was analyzed for comparison. 1D 1H, 2D {1H,1H} NOESY, TOCSY and DQF-COSY and 2D {13C,1H} HSQC spectra were recorded for each sample on a Bruker AVANCE IIIHD/Ultrashield 600 spectrometer equipped with a TCI cryoprobe using Bruker TopSpin 3.5 software. After excluding peaks from unmodified CgnA in the modified sample, the assignments of the C-terminal residues of the modified CgnA species were made using COSY, TOCSY and inter - residue NOE cross peaks using CCPNMR analysis assign v3. 13C shifts were identified from the HSQC spectra where sensitivity allowed. The majority of the expected resonances were easily identified, but the near-degeneracy of the former tyrosine Hα and Hβ shifts meant that the nOe cross peaks required to identify the stereochemistry at the tyrosine Cβ were not resolved. Indeed, the observation of two separate […]
Phenylmethylsulfonylfluoride (PMSF) can selectively modifying the catalytic serine of serine hydrolases via the formation of a covalent bond with the protein and can therefore be detected even in denaturing LC-MS conditions by a positive mass shift corresponding to the compound[21]. […]

Chain of CgnC (as listed by the source): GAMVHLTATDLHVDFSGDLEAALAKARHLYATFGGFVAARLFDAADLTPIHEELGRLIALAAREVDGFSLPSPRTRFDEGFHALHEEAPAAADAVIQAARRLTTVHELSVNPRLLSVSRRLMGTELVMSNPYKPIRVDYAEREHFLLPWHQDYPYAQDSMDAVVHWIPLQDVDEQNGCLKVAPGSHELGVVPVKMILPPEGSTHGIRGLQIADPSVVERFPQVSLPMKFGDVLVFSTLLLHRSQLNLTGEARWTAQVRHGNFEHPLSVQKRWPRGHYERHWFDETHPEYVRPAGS

Compound: CC[C@H](C)[C@H](NC)C(=O)N[C@@H]1C(=O)N2[C@H](C(=O)O)[C@@H](OC(N)=O)[C@@H]3c4ccccc4N([C@@H]1c1ccc(O)cc1)[C@@H]32 [compound 1, crocagin A]
inhibition of CsrA [1]: inhibits

Compound: MTMKKTIKQISAGDRSKKGNIYW [CgnA]
processing by CgnB, CgnC and CgnE (product formation/turnover) ([2]; 50 µM CgnA, 10 µM CgnB, 5 µM CgnC, 5 µM CgnE, 4 mM ascorbic acid, 2.5 mM FeCl2, 1 mM 2-oxoglutaric acid, pH 7.4, 37 °C, 2 h, LC-MS): formation of a major product with high turnover; also recorded: consumption of CgnA (magenta) and the formation of a major product (+14 Da, blue) as well as minor products (+16 Da, green; +30 Da
product formation with CgnB and CgnC ([2]; 50 µM CgnA, 10 µM CgnB, 5 µM CgnC, cofactors, 37 °C, 2 h): two additional product peaks detected when compared to CgnA–CgnE or CgnA–CgnC reactions
product formation with CgnC and CgnE ([2]; CgnA + CgnC + CgnE with cofactors): formation of an additional, minor peak with a mass shift of +28 Da
product formation with CgnC and cofactors ([2]; CgnA + CgnC + FeCl2, ascorbic acid, α-ketoglutarate): a new peak with a mass suggestive of hydroxylation (+16 Da), but the predominant peak remained unmodified CgnA; also recorded: formation of a minor +16 Da species
product formation with CgnC, no cofactors ([2]; CgnA + CgnC without FeCl2, ascorbic acid and α-ketoglutarate): did not lead to observable product formation
product formation without CgnC ([2]; CgnA with CgnB, CgnE or both, LC-MS): did not result in any observable product peak
pKd ([3]; Monolith NT 115, for CgnA: CgnE titrated, three independent samples, mean ± SD, read-out: KD (affinity) to CgnE): 5.74
weaker binding to CgnE than CgnA ([3]; leader peptide vs CgnA): ~300 times
binding to CgnD [4]: unable to detect binding
affinity of CgnA–CgnC [5]: No binding; also recorded: not CgnC, were able to bind CgnA
CgnA–CgnB interaction relative to CgnA–CgnE ([6]; MST KD 10.5 vs 1.8 µM): five times weaker
CgnA–CgnB KD relative to SPR value ([6]; MST vs surface plasmon resonance of ref 24): approximately one order of magnitude lower
pKd ([6]; MST, Monolith NT 115, RED-NHS label, CgnB titrated, three independent samples, mean ± SD, read-out: KD (affinity) of CgnA–CgnB): 4.98
affinity of CgnA–CgnB in presence of CgnE ([6]; MST, CgnE 250 µM constant, CgnB titrated): No binding; also recorded: we did not observe binding

iron bound to CgnE [7]: No iron could be detected
Compound: [Cl][Fe][Cl] [FeCl2]

Compound: O=S(=O)(F)Cc1ccccc1 [phenylmethylsulfonyl fluoride]
covalent labeling of CgnD [8]: inability to label CgnD

Compound: Ile-Tyr-Trp [core peptide, three-amino-acid core peptide of CgnA (Ile-Tyr-Trp for crocagin)]
turnover of the core peptide with leader peptide in trans ([2]; CgnB–CgnC–CgnE reaction, leader peptide added in trans): marginal
